Source: ChEMBL document CHEMBL4118100, “High Mobility Group Box-1 (HMGb1): Current Wisdom and Advancement as a Potential Drug Target” (J Med Chem, 2018)
Residues, ends and D or L forms follow the SMILES beside them.

Tests used:
[1] = target: Toll-like receptor 4/MD-2 (Homo sapiens, UniProt O00206+Q9Y6Y9); test: Binding affinity to recombinant human 10His-tagged TLR4 (24 to 631 residues)/recombinant human 10His-tagged MD2 (17 to 160 residues) after 5 mins by SPR assay; format: protein-complex assay
[2] = target: T1, High mobility group protein B1 (Homo sapiens, UniProt P09429); test: Binding affinity to recombinant HMGB1 A box region (1 to 89 residues) (unknown origin) expressed Escherichia coli after 5 mins by fluorescence-based assay
T1 sequence (P09429 whole entry): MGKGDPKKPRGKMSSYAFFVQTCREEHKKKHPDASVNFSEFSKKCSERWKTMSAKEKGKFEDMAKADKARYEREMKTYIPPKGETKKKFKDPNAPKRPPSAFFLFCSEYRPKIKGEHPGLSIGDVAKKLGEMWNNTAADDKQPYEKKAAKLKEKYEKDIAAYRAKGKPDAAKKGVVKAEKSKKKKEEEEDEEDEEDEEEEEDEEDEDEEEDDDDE

[3] = target: T1, High mobility group protein B1; test: Binding affinity to recombinant HMGB1 B box region (90 to 175 residues) (unknown origin) expressed Escherichia coli after 5 mins by fluorescence-based assay
[4] = target: T1, High mobility group protein B1; test: Binding affinity to N-terminal 6His-tagged HMGB1 AI region (1 to 87 residues) (unknown origin) expressed in Escherichia coli JM109 by SPR assay
[5] = target: T1, High mobility group protein B1; test: Binding affinity to N-terminal 6His-tagged HMGB1 Bj region (88 to 181 residues) (unknown origin) expressed in Escherichia coli JM109 by SPR assay
[6] = target: T1, High mobility group protein B1; test: Binding affinity to recombinant HMGB1 box A (unknown origin)
[7] = target: T1, High mobility group protein B1; test: Binding affinity to recombinant HMGB1 box B (unknown origin)

Sequence of Toll-like receptor 4/MD-2 (O00206 whole entry, the tested form may be a part): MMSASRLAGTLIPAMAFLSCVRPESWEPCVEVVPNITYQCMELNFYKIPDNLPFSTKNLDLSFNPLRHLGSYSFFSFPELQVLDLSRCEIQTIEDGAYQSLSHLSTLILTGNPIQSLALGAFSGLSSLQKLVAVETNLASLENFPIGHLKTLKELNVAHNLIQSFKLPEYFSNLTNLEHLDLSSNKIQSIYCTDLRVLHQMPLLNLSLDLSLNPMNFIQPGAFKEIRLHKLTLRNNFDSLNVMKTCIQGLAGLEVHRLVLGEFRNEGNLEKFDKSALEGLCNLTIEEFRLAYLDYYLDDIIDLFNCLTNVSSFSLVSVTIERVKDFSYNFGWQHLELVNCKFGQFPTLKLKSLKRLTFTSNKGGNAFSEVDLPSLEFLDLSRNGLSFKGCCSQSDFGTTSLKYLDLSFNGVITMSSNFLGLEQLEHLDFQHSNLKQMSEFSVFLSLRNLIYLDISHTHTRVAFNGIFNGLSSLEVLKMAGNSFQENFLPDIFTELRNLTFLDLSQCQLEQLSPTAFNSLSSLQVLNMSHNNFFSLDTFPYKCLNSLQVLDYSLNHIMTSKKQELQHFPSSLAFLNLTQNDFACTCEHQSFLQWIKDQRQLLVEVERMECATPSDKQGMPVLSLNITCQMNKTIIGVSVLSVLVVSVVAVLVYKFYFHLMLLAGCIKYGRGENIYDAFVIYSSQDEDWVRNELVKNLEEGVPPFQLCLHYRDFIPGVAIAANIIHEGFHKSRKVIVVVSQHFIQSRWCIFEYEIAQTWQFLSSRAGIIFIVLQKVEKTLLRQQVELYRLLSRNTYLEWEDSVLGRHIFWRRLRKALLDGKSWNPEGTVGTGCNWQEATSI
Sequence of Toll-like receptor 4/MD-2 (Q9Y6Y9 whole entry, the tested form may be a part): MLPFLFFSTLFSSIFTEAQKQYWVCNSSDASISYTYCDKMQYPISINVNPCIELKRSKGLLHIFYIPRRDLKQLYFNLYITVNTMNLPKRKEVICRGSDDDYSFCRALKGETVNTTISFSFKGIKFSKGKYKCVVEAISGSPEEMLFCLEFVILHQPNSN

## CSCC[C@H](NC(=O)[C@H](C)N)C(=O)N[C@@H](C)C(=O)N[C@@H](CC(C)C)C(=O)N[C@@H](CC(=O)O)C(=O)N[C@@H](CS)C(=O)N[C@@H](Cc1ccccc1)C(=O)N[C@@H](CCCNC(=N)N)C(=O)N[C@@H](Cc1c[nH]c2ccccc12)C(=O)NCC(=O)N[C@@H](Cc1c[nH]c2ccccc12)C(=O)N[C@@H](CCCNC(=N)N)C(=O)N[C@@H](CCSC)C(=O)N[C@@H](Cc1c[nH]c2ccccc12)C(=O)N[C@@H](CS)C(=O)N[C@@H](CO)C(=O)N[C@@H](CO)C(=O)NCC(=O)O (H-AMALDCFRWGWRMWCSSG-OH)
[1]
  Kd: 5.95 µM

## CC1(C)[C@@H](O[C@H]2O[C@H](C(=O)O)[C@@H](O)[C@H](O)[C@H]2O[C@@H]2O[C@H](C(=O)O)[C@@H](O)[C@H](O)[C@H]2O)CC[C@]2(C)[C@H]3C(=O)C=C4[C@@H]5C[C@@](C)(C(=O)O)CC[C@]5(C)CC[C@@]4(C)[C@]3(C)CC[C@@H]12 [GLYCYRRHIZIN]
[2]
  Kd: 103 µM
[3]
  Kd: 87 µM

## CN(Cc1cnc2nc(N)nc(N)c2n1)c1ccc(C(=O)N[C@@H](CCC(=O)O)C(=O)O)cc1 [METHOTREXATE]
[4]
  Kd: 0.5 µM
[5]
  Kd: 0.024 µM

## O=C(O)c1ccccc1O [SALICYLIC ACID]
[6]
  Kd: 1 to 10 µM
[7]
  Kd: 1 to 10 µM
